Literature values as cited in US20150127309A1, “Method To Translate Biodynamic Spectrograms Into High-Content Information” (Purdue Research Foundation, priority 2013, published 2015).

Experiments:
[1] = ref [78]
three Raf isoforms = details: in serum; refs [75-77]

In the case of `CCCS(=O)(=O)Nc1ccc(F)c(C(=O)c2c[nH]c3ncc(-c4ccc(Cl)cc4)cc23)c1F` [PLX4032], the toxicity [1] is listed as “minimal toxicity”, the tolerated serum levels ([1]; serum) is listed as “up to 50 μM” and the “activity against Raf isoforms” value (three Raf isoforms) is listed as “active against three Raf isoforms at nanomolar concentrations”.
